Columns and labels:
S. griseolus ATCC 11796 = test: Percent conversion of herbicides by cultures (Example 16); format: in vitro ADME, Streptomyces griseolus; settings: 3.0 mg herbicide in 25 ml broth; 24 hours
Protocol: (§1) Separate cultures (50 ml) inoculated with S. lividans C37, S. lividans transformed with pCAO200SU1-FeS-B#9, S. griseolus ATCC11796, S. griseolus PH2003 transformed with pIJ425, or S. ariseolus PH2003 transformed with pCS325 were cultured in sporulation broth for 18 hours at 30° C. with shaking. Each culture was then resuspended in 25 ml fresh sporulation broth and 3.0 mg herbicide added. In the case of cultures of S. griseolus ATCC11796, a second culture containing herbicide and 3.0 mg 10001 was also prepared. Each culture was reincubated for 24 hours, then an aliquot of the medium was withdrawn and analyzed by HPLC. The percent conversion of herbicide was determined.

[1] = test system: S. griseolus ATCC 11796, 10001 added; test: as above; format: in vitro ADME, Streptomyces griseolus; settings: 3.0 mg herbicide and 3.0 mg 10001 in 25 ml broth; 24 hours
Protocol: as §1

[2] = test system: S. lividans pCAO200SU1-FeS-B#9; test: as above; format: in vitro ADME, Streptomyces lividans; settings: for Percent Conversion: 3.0 mg herbicide in 25 ml broth, 24 hours; for metabolism by bacteria containing constitutively expressed P450SU1: summary of Table 13
Protocol: as §1

S. lividans C37 [3] = test: as above; format: in vitro ADME, Streptomyces lividans; settings: 3.0 mg herbicide in 25 ml broth; 24 hours
Protocol: as §1

[4] = test system: S. lividans pCAO200SU1#12; test: Sulfonylurea metabolism by washed cell suspension (Examples 6-9); format: in vitro ADME, Streptomyces lividans; settings: substrate 10004
S. lividans pCAO200 [5] = test: as above; format: in vitro ADME, Streptomyces lividans; settings: substrate 10004
[6] = test system: S. lividans pCAO200SU1-FeS-B#9; test: as above; format: in vitro ADME, Streptomyces lividans
[7] = test system: S. lividans transformed with pCAO400; test: Sulfonylurea metabolism by washed cell suspension (Example 5); format: in vitro ADME, Streptomyces lividans; settings: substrate 10004 about 100 μg/ml
Protocol: (§2) Herbicides and their metabolites are measured by HPLC as described by Romesser et al., BBRC 140: 650-659 (1986), herein incorporated by reference, except that 0.1% H3 PO4 is used in both solvents. Chromatographic identity and quantitation of the herbicides and their resulting metabolites is determined by comparing them chromatographically with authentic standard compounds. Identity of the resulting metabolites is also confirmed by UV spectroscopy.
(§3) A 100 ml culture of S. griseolus ATCC 11796 in sporulation broth and a 50 ml culture of S. lividans transformed with pCAO400 in YEME broth were prepared and incubated for 24 hours as described. At that time, the S. griseolus culture was split into two 50 ml aliquots into two separate flasks and 25 ml of fresh sporulation broth was added to each and 9 mg of […] was added to one of these cultures to induce cytochrome P450SU1 expression. Fresh YEME broth (25 ml) was added to the S. lividans culture. After an additional 6 hours growth at 30° C., the cells in each culture were harvested as described above, washed twice with MOPS (50 mM, pH 7.2) and recentrifuged. The cell pellets were resuspended in four cell volumes of MOPS (50 mM, pH 7.2) containing 0.2% glucose and about 100 μg/ml of 10004. These cell suspensions were incubated at 30° C. with shaking and aliqouts were taken at 2 and 5.5 hours. The supernatant of each aliquot was analyzed by HPLC and the concentrations of the sulfonylurea compound 10004 and its metabolite 10005 were determined.

[8] = test system: S. griseolus PH2003 pCS325; test: Percent conversion of herbicides by cultures (Example 16); format: in vitro ADME, Streptomyces griseolus; settings: for Percent Conversion: 3.0 mg herbicide in 25 ml broth, 24 hours
Protocol: as §1

[9] = test system: S. griseolus PH2003 pIJ425; test: as above; format: in vitro ADME, Streptomyces griseolus; settings: 3.0 mg herbicide in 25 ml broth; 24 hours
Protocol: as §1

[10] = target: T1, purified cytochrome p450SU1 (Streptomyces griseolus, UniProt P18326); test: Rate of metabolism of 10015 to 10014 supported by FeS proteins (Example 27); format: biochemical; settings: 0.2 mM 10015, 15 min
T1 construct: Purified, native cytochromes P450SU1 and P450SU2; endogenous in cells; host or cells: sulfonylurea-induced Streptomyces griseolus cells
T1 sequence (P18326 whole entry, looked up): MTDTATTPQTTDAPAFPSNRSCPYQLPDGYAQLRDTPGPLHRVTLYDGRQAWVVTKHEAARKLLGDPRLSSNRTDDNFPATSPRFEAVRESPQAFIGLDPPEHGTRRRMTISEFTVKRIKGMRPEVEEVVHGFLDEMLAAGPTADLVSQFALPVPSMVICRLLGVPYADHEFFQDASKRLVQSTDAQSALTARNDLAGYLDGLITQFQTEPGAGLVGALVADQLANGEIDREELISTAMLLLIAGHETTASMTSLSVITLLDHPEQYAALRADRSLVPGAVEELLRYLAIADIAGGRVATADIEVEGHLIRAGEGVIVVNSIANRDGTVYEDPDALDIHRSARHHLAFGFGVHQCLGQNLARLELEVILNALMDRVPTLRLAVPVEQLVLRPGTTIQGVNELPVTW
Protocol: The purpose of this example was to define the combination of cytochrome p450SU1 and other proteins which results in optimal metabolism of sulfonylureas, based on conclusions from in vitro experiments. In these experiments, the rate of metabolism of 10015 to 10014, mediated by purified cytochrome p450SU1, was tested to find which FeS protein functions as the best direct electron donor.
The reaction was initiated by-the addition of NADPH to a final concentration of 0.03 mM. After 15 min the reaction was terminated by the addition of 0.25 ml H2 O:acetonitrile:H3 PO4^- (80:19:1). After filtering this mixture through a 0.2 μm filter, the amount of metabolite (10014) formed was analyzed by HPLC.

[11] = test system: S. lividans pCAO200SU1-FeS-B#9; test: Percent conversion of non-sulfonylurea herbicides (Example 29); format: in vitro ADME, Streptomyces lividans
Protocol: (§4) This experiment was performed as in Example 17 with the following changes. Separate cultures (50 ml) inoculated with S. lividans C37, S. lividans transformed with pCAO200SU1-FeS-B#9, or S. griseolus ATCC11796 were cultured in sporulation broth for 18 hours at 30° C. with shaking. Each culture was then resuspended in 25 ml fresh sporulation broth and 3.0 mg herbicide added. Each culture was reincubated for 18 hours, then an aliquot of the medium was withdrawn and analyzed by HPLC. The percent conversion of herbicide was determined.

S. lividans C37 [12] = test: as above; format: in vitro ADME, Streptomyces lividans; settings: 3.0 mg herbicide in 25 ml broth; 18 hours
Protocol: as §4

S. griseolus ATCC11796 = test: as above; format: in vitro ADME, Streptomyces griseolus; settings: 3.0 mg herbicide in 25 ml broth; 18 hours
Protocol: as §4

S. lividans pCAO200 [13] = test: Sulfonylurea metabolism by washed cell suspension (Examples 6-9); format: in vitro ADME, Streptomyces lividans; settings: substrate 10006
[14] = test system: S. lividans pCAO200SU1#12; test: as above; format: in vitro ADME, Streptomyces lividans; settings: substrate 10006
[15] = Incubation buffer without cells, time 0 (Examples 5-9, 11, 12); format: in vitro ADME; settings: no cells; substrate 10006; 0 h
Protocol: as §3
(§5) S. lividans transformed respectively with pCAO200SU1-FeS-B#9, pCAO200SU#112and pCAO200 were cultured for 36 hours in 400 ml of YEME broth at 30° C. S. griseolus ATCC 11796 was similarly cultured in 400 ml of sporulation broth. Six hours before harvesting the cells, 150 ml of fresh YEME broth was added to the S. lividans cells, and the S. griseolus cells were split into two 200 ml cultures with 100 ml of fresh sporulation broth added to each. 10001 (36 mg) was added to one of the two S. griseolus cultures to induce cytochrome P450SU1. The cells were prepared as described above in Example 5 and the concentrations of the sulfonylurea compound 10006 and its metabolites 10007, 10008 or 10009 were determined.
S. lividans transformed with pCAO200SU2-FeS-A#11 and S. lividans transformed with pCAO200 were cultured for 36 hours in 400 ml of YEME broth at 30° C. S. griseolus PH2001 (mutant without SU1) was cultured in 400 ml of sporulation broth at 30° C. Nine hours before harvesting the cells, the S. griseolus PH2001 culture was divided into two 200 ml cultures. Both received 100 ml of fresh sporulation broth and one received 36 mg of 10001 to induce cytochrome P450SU2. The cells were prepared as described above in Example 6 and the concentrations of the sulfonylurea compound 10001 and its metabolites 10002 and 10003 were determined.

[16] = test system: S. griseolus ATCC 11796 uninduced; test: Sulfonylurea metabolism by washed cell suspension (Examples 5-9); format: in vitro ADME, Streptomyces griseolus; settings: substrate 10006
Protocol: as §2, §3, §5

[17] = test system: S. griseolus ATCC 11796 induced with 10001; test: as above; format: in vitro ADME, Streptomyces griseolus; settings: substrate 10006
Protocol: as §2, §3, §5

N#Cc1cc(Br)c(O)c(Br)c1 [compound 10023, 3,5-dibromo-4-hydroxybenzonitrile]
Percent Conversion (S. griseolus ATCC 11796): 0%
Percent Conversion [1]: 0%
Percent Conversion [2]: 0%
Percent Conversion (S. lividans C37 [3]): 0%

CCCCN1Cc2cccc(S(=O)(=O)NC(=O)Nc3nc(OC)cc(OC)n3)c2S1(=O)=O [compound 10004]
concentration in supernatant ([4]; 2 h): 81 µM
concentration in supernatant ([4]; 4 h): 29 µM
concentration in supernatant ([4]; 6 h): 0 µM
concentration in supernatant (S. lividans pCAO200 [5]; 2 h): 97 µM
concentration in supernatant (S. lividans pCAO200 [5]; 4 h): 92 µM
concentration in supernatant (S. lividans pCAO200 [5]; 6 h): 85 µM
concentration in supernatant ([6]; substrate 10004, 2 h): 2 µM
concentration in supernatant ([6]; substrate 10004, 4 h): 1 µM
concentration in supernatant ([6]; substrate 10004, 6 h): 2 µM
concentration in supernatant ([7]; 2 h): 72 µM
concentration in supernatant ([7]; 5.5 h): 0 µM

CN(C)c1nc(=O)n(C2CCCCC2)c(=O)n1C [compound 10017, 3-cyclohexyl-1-methyl-6-dimethylamino-S-triazine-2,4(1H,3H)dione]
Percent Conversion (S. griseolus ATCC 11796): 1%
Percent Conversion [8]: 98%
metabolism by bacteria containing constitutively expressed P450SU2 ([8]; summary of Table 13): metabolized
Percent Conversion [1]: 35%
Percent Conversion [9]: 6%
Percent Conversion [2]: 47%
metabolism by bacteria containing constitutively expressed P450SU1 [2]: metabolized
Percent Conversion (S. lividans C37 [3]): 19%

spinach Fd: spinach ferredoxin (an FeS protein)
Rate of 10015 metabolism to 10014 [10]: 0.4 (nmol 10014)·(nmol p450)-1·(mi
Rate of 10015 metabolism to 10014 ([10]; 4 mM FeS addition, FNR 0.2 mM): 0.2 (nmol 10014)·(nmol p450)-1·(mi
Rate of 10015 metabolism to 10014 ([10]; 4 mM FeS addition, FNR 2.0 mM): 0.2 (nmol 10014)·(nmol p450)-1·(mi

COc1cc(OC)nc(NC(=O)NS(=O)(=O)c2cccc3c2S(=O)(=O)N(CCC(C)O)C3)n1 (stereo not shown) [compound 10005, 2-(3-hydroxybutyl)-2,3-dihydro-N-[(4,6-dimethoxypyrimidin-2-yl)aminocarbonyl]1,2-benzisothiazole-7-sulfonamide-1,1-dioxide]
concentration in supernatant ([4]; 2 h): 43 µM
concentration in supernatant ([4]; 4 h): 84 µM
concentration in supernatant ([4]; 6 h): 109 µM
concentration in supernatant (S. lividans pCAO200 [5]; 2 h): 22 µM
concentration in supernatant (S. lividans pCAO200 [5]; 4 h): 26 µM
concentration in supernatant (S. lividans pCAO200 [5]; 6 h): 30 µM
concentration in supernatant ([6]; substrate 10004, 2 h): 35 µM
concentration in supernatant ([6]; substrate 10004, 4 h): 100 µM
concentration in supernatant ([6]; substrate 10004, 6 h): 100 µM
concentration in supernatant ([7]; 2 h): 67 µM
concentration in supernatant ([7]; 5.5 h): 125 µM

CCc1cnc(C2=NC(C)(C(C)C)C(=O)N2)c(C(=O)O)c1 (stereo not shown) [compound 10034]
Percent Conversion ([11]; 3.0 mg herbicide in 25 ml broth, 18 hours): 69%
metabolism by bacteria containing constitutively expressed P450SU1 ([11]; summary of Table 29): metabolized
Percent Conversion (S. lividans C37 [12]): 10%
Percent Conversion (S. griseolus ATCC11796): 13%

COC(=O)c1ccccc1S(=O)(=O)NC(=O)Nc1nc(C)nc(OC)n1 [compound 10006, N-[(4-methoxy-6-methyl-1,3,5-triazinyl)aminocarbonyl]-2-methoxycarbonylbenzenesulfonamide]
concentration in supernatant (S. lividans pCAO200 [13]; 2 h): 381 µM
concentration in supernatant (S. lividans pCAO200 [13]; 4 h): 377 µM
concentration in supernatant (S. lividans pCAO200 [13]; 6 h): 375 µM
concentration in supernatant ([14]; 2 h): 376 µM
concentration in supernatant ([14]; 4 h): 384 µM
concentration in supernatant ([14]; 6 h): 386 µM
concentration in supernatant [15]: 362 µM
concentration in supernatant ([16]; 2 h): 404 µM
concentration in supernatant ([16]; 4 h): 394 µM
concentration in supernatant ([16]; 6 h): 405 µM
concentration in supernatant ([17]; 2 h): 369 µM
concentration in supernatant ([17]; 4 h): 357 µM
concentration in supernatant ([17]; 6 h): 355 µM
concentration in supernatant ([6]; substrate 10006, 2 h): 326 µM
concentration in supernatant ([6]; substrate 10006, 4 h): 267 µM
concentration in supernatant ([6]; substrate 10006, 6 h): 232 µM

Cc1ccc(NC(=O)N(C)C)cc1Cl [compound 10019, 3-(3-chloro-p-tolyl)-1,1-dimethylurea]
Percent Conversion (S. griseolus ATCC 11796): 0%
Percent Conversion [8]: 9%
Percent Conversion [1]: 80%
Percent Conversion [9]: 0%
Percent Conversion [2]: 35%
metabolism by bacteria containing constitutively expressed P450SU1 [2]: metabolized
Percent Conversion (S. lividans C37 [3]): 0%
